Results published in patent US10934255B2, “Nrf and HIF activators/HDAC inhibitors and therapeutic methods using the same” (THE BOARD OF TRUSTEES OF THE UNIVERSITY OF ILLINOIS, priority 2017, dated 2021).
Read-outs that look alike come from different tables or passages of the source.

How the values were obtained:
HDAC7 = target: T1, HDAC7 (Homo sapiens, UniProt Q8WUI4); test: HDAC7 isoform selectivity assay; assay type: biochemical; details: Table 2 isoform selectivity; read-out: HDAC Inhibition (IC50 uM) isoform 7
T1 sequence (Q8WUI4 1-952): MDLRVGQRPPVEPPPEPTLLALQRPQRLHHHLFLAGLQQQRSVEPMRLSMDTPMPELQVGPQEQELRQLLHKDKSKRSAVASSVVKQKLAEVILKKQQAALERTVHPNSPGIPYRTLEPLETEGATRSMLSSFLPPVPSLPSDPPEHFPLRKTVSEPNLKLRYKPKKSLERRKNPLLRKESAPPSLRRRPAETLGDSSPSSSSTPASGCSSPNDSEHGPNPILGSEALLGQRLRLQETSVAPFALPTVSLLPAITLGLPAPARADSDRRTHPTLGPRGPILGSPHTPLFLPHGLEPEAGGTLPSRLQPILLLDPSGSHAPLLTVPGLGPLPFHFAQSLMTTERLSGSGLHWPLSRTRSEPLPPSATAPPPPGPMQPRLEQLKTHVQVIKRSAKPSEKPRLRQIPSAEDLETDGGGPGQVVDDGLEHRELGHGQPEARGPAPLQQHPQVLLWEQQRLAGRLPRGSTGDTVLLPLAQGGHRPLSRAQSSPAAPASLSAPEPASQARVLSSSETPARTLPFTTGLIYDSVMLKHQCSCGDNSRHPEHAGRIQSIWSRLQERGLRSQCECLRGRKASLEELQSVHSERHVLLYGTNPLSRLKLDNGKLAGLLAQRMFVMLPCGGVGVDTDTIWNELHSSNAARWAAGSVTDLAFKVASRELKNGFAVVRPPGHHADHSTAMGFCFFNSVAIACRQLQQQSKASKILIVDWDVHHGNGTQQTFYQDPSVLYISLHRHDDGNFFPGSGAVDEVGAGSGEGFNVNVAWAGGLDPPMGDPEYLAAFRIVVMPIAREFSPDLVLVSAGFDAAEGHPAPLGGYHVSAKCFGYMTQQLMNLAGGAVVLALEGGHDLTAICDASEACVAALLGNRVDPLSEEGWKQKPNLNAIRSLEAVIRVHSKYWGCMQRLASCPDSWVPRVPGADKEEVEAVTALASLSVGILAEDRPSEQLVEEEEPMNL
Method: The HDAC1, 2, 4, 5, 6, 7, 8, 9, 10, and 11 assays used isolated recombinant human protein; HDAC3/NcoR2 complex was used for the HDAC3 assay. Substrate for HDAC1, 2, 3, 6, 10, and 11 assays is a fluorogenic peptide from p53 residues 379-382 (RHKKAc); substrate for HDAC8 is fluorogenic diacyl peptide based on residues 379-382 of p53 (RHKAcKAc). Acetyl-Lys(trifluoroacetyl)-AMC substrate was used for HDAC4, 5, 7, and 9 assays. Compounds were dissolved in DMSO and tested in 10-dose IC50 mode with 3-fold serial dilution starting at 30 μM. Control Compound Trichostatin A (TSA) was tested in a 10-dose IC50 with 3-fold serial dilution starting at 5 μM. IC50 values were extracted by curve-fitting the dose/response slopes. Assays were performed in duplicate and IC50 values are an average of data from both experiments.

[1] = Blood brain barrier test: tissue concentration after iv injection; assay type: in vivo, Mouse; details: after 20 minutes
Method: Tests were conducted to determine the ability of a present compound to cross the blood brain barrier (BBB). In particular, Mouse 1 was injected iv with about 7.5 mg/kg of compound II-ING-6 in DMSO. Mouse 2—about 10 mg/kg. Blood, brain, and liver were collected after 20 minutes (Table 4).

[2] = system: human neuronal SH-SY5Y cells; test: H2O2-induced neurotoxicity in SH-SY5Y cells (MTT); assay type: cell-based; details: 24 h pretreatment, MTT at 24 h
Method: FIG. 2A contains bar graphs showing the concentration-dependent neuroprotection of SH-SY5Y cells from H2O2-induced toxicity. Cell viability was measured using the MTT assay at 24 h. […] (B) Test compounds at 5 μM protected N2a cells against MPP+ (100 μM) insult. Cell viability was measured at 24 h using Presto-Blue assay.
(§1) II-ING-6 and II-ING-66, were tested in neuronal cell lines subjected to H2O2 and MPP+-induced toxicity (Parkinson's disease model), and in a composite model of ischemia-reperfusion injury: oxygen glucose deprivation (OGD). In H2O2-induced neurotoxicity in human neuronal SH-SY5Y cells, neuroprotective properties of compounds II-ING-6 and II-ING-66 were assessed using 24 h pretreatment regimen (FIG. 2A). […] Neuroprotection against OGD is expected to be mediated by HIF-1α and Nrf2. In this assay, after pretreatment of cells 24 h prior to OGD insult, both compounds were neuroprotective (FIG. 3A).

mouse neuronal N2a cells = test: MPP+ neurotoxicity in N2a cells (Presto-Blue); assay type: cell-based; details: 5 μM compound, MPP+ 100 μM, 24 h
Method: FIG. 2B contains bar graphs showing test compounds at 5 μM protected N2a cells against MPP+(100 μM) insult. Cell viability was measured at 24 h using Presto-Blue assay.
as §1

SH-SY5Y cells = test: Oxygen glucose deprivation (OGD) in SH-SY5Y cells (MTT); assay type: cell-based, human; details: for Neuroprotection against OGD, pretreatment: pretreatment 24 h prior to OGD insult; for Neuroprotection against OGD, post-treatment: treatment after OGD
Method: FIG. 3A contains bar graphs showing a concentration dependence of II-ING-6 and II-ING-66 neuroprotection in SH-SY5Y cells subject to OGD: 24 h pretreatment.
FIG. 3B contains bar graphs showing concentration dependencies of II-ING-6 and II-ING-66 neuroprotection in SH-SY5Y cells subject to OGD: treatment post OGD. Cell viability was measured using the MTT assay 24 h post insult.
as §1

[3] = liver-on-a-chip assay, viability of HepaRG hepatocytes by MTT; assay type: cell-based; details: human, HepaRG hepatocytes in liver-on-a-chip, read-out: LC50
[4] = system: TA98-S9, TA100-S9, TA1535-59, and TA1537-59; test: Ames test (genetic toxicity); design: species or system bacterium; details: concentrations of 0.6-100 μM
Method: Compound II-ING-6 was tested in genetic toxicity assays to assess the mutagenic potential of the compound. The Ames test was done with several strains of bacterium, such as: TA98-S9, TA100-S9, TA1535-59, and TA1537-59.

[5] = system: panel of 43 cloned human and rodent CNS receptors, channels and transporters; test: PDSP selectivity panel; assay type: binding; details: 43 CNS receptors
Method: Compound II-ING-6 also was tested in a panel of 43 cloned human and rodent CNS receptors, channels and transporters using the NIMH sponsored Psychoactive Drug Screening Program (PDSP).

Row | Structure (SMILES) | IC50 (HDAC7) | concentration at 20 min ([1]; brain, Mouse 1, iv 7.5 mg/kg in DMSO, read-out: Concentration, Brain) | concentration at 20 min ([1]; brain, Mouse 2, iv 10 mg/kg in DMSO, read-out: Concentration, Brain) | concentration at 20 min ([1]; liver, Mouse 1, iv 7.5 mg/kg in DMSO, read-out: Concentration, Liver) | concentration at 20 min ([1]; liver, Mouse 2, iv 10 mg/kg in DMSO, read-out: Concentration, Liver) | concentration at 20 min ([1]; plasma, Mouse 1, iv 7.5 mg/kg in DMSO, read-out: Concentration, Plasma) | concentration at 20 min ([1]; plasma, Mouse 2, iv 10 mg/kg in DMSO, read-out: Concentration, Plasma) | Neuroprotection from H2O2-induced toxicity [2] | Protection against MPP+ neurotoxicity (mouse neuronal N2a cells) | Neuroprotection against OGD, pretreatment (SH-SY5Y cells) | Neuroprotection against OGD, post-treatment (SH-SY5Y cells) | CC50 at 48 h [3] | Ames test result (mutagenic potential) [4] | Activity in PDSP panel [5]
1 | O=C(NO)c1ccc(CN2CCc3ccc(Cl)cc32)cc1 [II-ING-6, 4-((6-Chloroindolin-1-yl)methyl)-N-hydroxybenzamide] | 0.98 µM | 1060 ng/g | 1760 ng/g | 501 ng/g | 1030 ng/g | 256 ng/g | 387 ng/g | Significant neuroprotection | significant protection | neuroprotective | significant neuroprotection | > 500000 nM | Negative | No significant activity
2 | Cn1c(NCc2ccc(C(=O)NO)cc2)nc2ccccc21 [II-ING-13, N-Hydroxy-4-(((1-methyl-1H-benzo[d]imidazol-2-yl)amino)methyl)benzamide] | 0.55 µM | – | – | – | – | – | – | – | – | – | – | – | – | –
3 | O=C(NO)c1ccc(CN2CCc3ccc(F)cc32)cc1 [II-ING-41, 4-((6-Fluoroindolin-1-yl)methyl)-N-hydroxybenzamide] | 0.46 µM | – | – | – | – | – | – | – | – | – | – | – | – | –
4 | O=C(NO)c1ccc(CN2C(=O)C(F)(F)c3ccccc32)cc1 [II-ING-66, 4-((3,3-Difluoro-2-oxoindolin-1-yl)methyl)-N-hydroxybenzamide] | – | – | – | – | – | – | – | Significant neuroprotection | significant protection | neuroprotective | significant neuroprotection only for compound II-ING-6 | > 500000 nM | – | –
